From PubChem BioAssay (NCI) come the findings set out here.

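Exposure lasted 48 hours, with cells grown in 96-well plates and compounds tested at five concentrations. TGI: total growth inhibition.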

One experiment deals with SK-OV-3 ovarian. In words: growth of human tumour cells (NCI), 48 h.
Consider `COc1cc2c(cc1OC)C1=Cc3cc(OC)c(OC)cc3C(C)N1C=C2` (stereo not drawn), for which the TGI was greater than 100 µM.

For `Nc1nc2cc3nc(N)c(N)nc3cc2nc1N`, the TGI is greater than 100 µM.

With `CCOC(=O)CNC(=O)C(CSCc1ccc(Br)cc1)NC(=O)CCC(N)C(=O)OCC` (stereo not drawn), the TGI was greater than 50 µM.

Regarding `COC(=O)C1(C(=O)OC)CC2=C(S(=O)(=O)c3ccccc3)C[C@H](S(=O)(=O)c3ccccc3)[C@H]2C1`, the TGI is greater than 100 µM.

The next experiment concerns SR leukemia. In words: growth of human tumour cells (NCI), 48 h.
On to `Nc1nc2cc3nc(N)c(N)nc3cc2nc1N`, for which the TGI is greater than 100 µM.

Consider `CCOC(=O)CNC(=O)C(CSCc1ccc(Br)cc1)NC(=O)CCC(N)C(=O)OCC` (stereo not drawn), for which the TGI was greater than 50 µM.

The next experiment has as its system RXF 393 renal. In words: growth of human tumour cells (NCI), 48 h.
Regarding `COc1cc2c(cc1OC)C1=Cc3cc(OC)c(OC)cc3C(C)N1C=C2` (stereo not drawn), the TGI was greater than 100 µM.

The molecule `Nc1nc2cc3nc(N)c(N)nc3cc2nc1N` had a TGI greater than 100 µM.

Regarding `CCOC(=O)CNC(=O)C(CSCc1ccc(Br)cc1)NC(=O)CCC(N)C(=O)OCC` (stereo not drawn), the TGI was greater than 50 µM.

`COC(=O)C1(C(=O)OC)CC2=C(S(=O)(=O)c3ccccc3)C[C@H](S(=O)(=O)c3ccccc3)[C@H]2C1` showed a TGI of 66.2 µM.

Another experiment concerns A498 renal. Kind of experiment: growth of human tumour cells (NCI), 48 h.
With `COc1cc2c(cc1OC)C1=Cc3cc(OC)c(OC)cc3C(C)N1C=C2` (stereo not drawn), the TGI was greater than 100 µM.

The molecule `Nc1nc2cc3nc(N)c(N)nc3cc2nc1N` displayed a TGI greater than 100 µM.

Take `COC(=O)C1(C(=O)OC)CC2=C(S(=O)(=O)c3ccccc3)C[C@H](S(=O)(=O)c3ccccc3)[C@H]2C1`: the TGI is greater than 100 µM.

A further experiment has as its system HS 578T breast. Kind of experiment: growth of human tumour cells (NCI), 48 h.
As for `COc1cc2c(cc1OC)C1=Cc3cc(OC)c(OC)cc3C(C)N1C=C2` (stereo not drawn), the TGI was greater than 100 µM.

For the molecule `Nc1nc2cc3nc(N)c(N)nc3cc2nc1N`, the TGI was greater than 100 µM.

In turn, `CCOC(=O)CNC(=O)C(CSCc1ccc(Br)cc1)NC(=O)CCC(N)C(=O)OCC` (stereo not drawn) had a TGI greater than 50 µM.

Consider `COC(=O)C1(C(=O)OC)CC2=C(S(=O)(=O)c3ccccc3)C[C@H](S(=O)(=O)c3ccccc3)[C@H]2C1`, for which the TGI is greater than 100 µM.

The next experiment relates to NCI/ADR-RES ovarian. Kind of experiment: growth of human tumour cells (NCI), 48 h.
In the case of `COc1cc2c(cc1OC)C1=Cc3cc(OC)c(OC)cc3C(C)N1C=C2` (stereo not drawn), the TGI is greater than 100 µM.

As for `Nc1nc2cc3nc(N)c(N)nc3cc2nc1N`, the TGI was greater than 100 µM.

As for `CCOC(=O)CNC(=O)C(CSCc1ccc(Br)cc1)NC(=O)CCC(N)C(=O)OCC` (stereo not drawn), the TGI was greater than 50 µM.

Consider `COC(=O)C1(C(=O)OC)CC2=C(S(=O)(=O)c3ccccc3)C[C@H](S(=O)(=O)c3ccccc3)[C@H]2C1`, for which the TGI was greater than 100 µM.

Another experiment relates to OVCAR-5 ovarian. In words: growth of human tumour cells (NCI), 48 h.
Molecule `COc1cc2c(cc1OC)C1=Cc3cc(OC)c(OC)cc3C(C)N1C=C2` (stereo not drawn) registered a TGI greater than 100 µM.

Molecule `Nc1nc2cc3nc(N)c(N)nc3cc2nc1N` had a TGI greater than 100 µM.

`CCOC(=O)CNC(=O)C(CSCc1ccc(Br)cc1)NC(=O)CCC(N)C(=O)OCC` (stereo not drawn) registered a TGI greater than 50 µM.

For the molecule `COC(=O)C1(C(=O)OC)CC2=C(S(=O)(=O)c3ccccc3)C[C@H](S(=O)(=O)c3ccccc3)[C@H]2C1`, the TGI is greater than 100 µM.

In another experiment the test system is MDA-MB-231 breast. In words: growth of human tumour cells (NCI), 48 h.
The molecule `Nc1nc2cc3nc(N)c(N)nc3cc2nc1N` gave a TGI greater than 100 µM.

The molecule `CCOC(=O)CNC(=O)C(CSCc1ccc(Br)cc1)NC(=O)CCC(N)C(=O)OCC` (stereo not drawn) yielded a TGI greater than 50 µM.

As to `COC(=O)C1(C(=O)OC)CC2=C(S(=O)(=O)c3ccccc3)C[C@H](S(=O)(=O)c3ccccc3)[C@H]2C1`, the TGI is greater than 100 µM.

For a further experiment, the system named is NCI-H23 lung. In words: growth of human tumour cells (NCI), 48 h.
`COc1cc2c(cc1OC)C1=Cc3cc(OC)c(OC)cc3C(C)N1C=C2` (stereo not drawn): the TGI is greater than 100 µM.

`Nc1nc2cc3nc(N)c(N)nc3cc2nc1N` had a TGI greater than 100 µM.

The molecule `CCOC(=O)CNC(=O)C(CSCc1ccc(Br)cc1)NC(=O)CCC(N)C(=O)OCC` (stereo not drawn) gave a TGI greater than 50 µM.

`COC(=O)C1(C(=O)OC)CC2=C(S(=O)(=O)c3ccccc3)C[C@H](S(=O)(=O)c3ccccc3)[C@H]2C1` registered a TGI greater than 100 µM.

In the next experiment the test system is MOLT-4 leukemia. Kind of experiment: growth of human tumour cells (NCI), 48 h.
The molecule `COc1cc2c(cc1OC)C1=Cc3cc(OC)c(OC)cc3C(C)N1C=C2` (stereo not drawn) displayed a TGI greater than 100 µM.

For `Nc1nc2cc3nc(N)c(N)nc3cc2nc1N`, the TGI is greater than 100 µM.

Regarding `CCOC(=O)CNC(=O)C(CSCc1ccc(Br)cc1)NC(=O)CCC(N)C(=O)OCC` (stereo not drawn), the TGI was greater than 50 µM.

For the molecule `COC(=O)C1(C(=O)OC)CC2=C(S(=O)(=O)c3ccccc3)C[C@H](S(=O)(=O)c3ccccc3)[C@H]2C1`, the TGI is greater than 100 µM.

The subject of a further experiment is SN12C renal. In words: growth of human tumour cells (NCI), 48 h.
The molecule `COc1cc2c(cc1OC)C1=Cc3cc(OC)c(OC)cc3C(C)N1C=C2` (stereo not drawn) displayed a TGI greater than 100 µM.

As for `Nc1nc2cc3nc(N)c(N)nc3cc2nc1N`, the TGI was greater than 100 µM.

Molecule `CCOC(=O)CNC(=O)C(CSCc1ccc(Br)cc1)NC(=O)CCC(N)C(=O)OCC` (stereo not drawn) registered a TGI greater than 50 µM.

For the molecule `COC(=O)C1(C(=O)OC)CC2=C(S(=O)(=O)c3ccccc3)C[C@H](S(=O)(=O)c3ccccc3)[C@H]2C1`, the TGI is greater than 100 µM.

The next experiment relates to EKVX NSCLC. Kind of experiment: growth of human tumour cells (NCI), 48 h.
In turn, `COc1cc2c(cc1OC)C1=Cc3cc(OC)c(OC)cc3C(C)N1C=C2` (stereo not drawn) showed a TGI greater than 100 µM.

In the case of `Nc1nc2cc3nc(N)c(N)nc3cc2nc1N`, the TGI was greater than 100 µM.

In turn, `CCOC(=O)CNC(=O)C(CSCc1ccc(Br)cc1)NC(=O)CCC(N)C(=O)OCC` (stereo not drawn) yielded a TGI greater than 50 µM.

For `COC(=O)C1(C(=O)OC)CC2=C(S(=O)(=O)c3ccccc3)C[C@H](S(=O)(=O)c3ccccc3)[C@H]2C1`, the TGI is greater than 100 µM.

For the next experiment, the system named is OVCAR-4 ovarian. Kind of experiment: growth of human tumour cells (NCI), 48 h.
Consider `CCOC(=O)CNC(=O)C(CSCc1ccc(Br)cc1)NC(=O)CCC(N)C(=O)OCC` (stereo not drawn), for which the TGI was greater than 50 µM.

`COC(=O)C1(C(=O)OC)CC2=C(S(=O)(=O)c3ccccc3)C[C@H](S(=O)(=O)c3ccccc3)[C@H]2C1` registered a TGI greater than 100 µM.

The next experiment relates to MDA-N. Kind of experiment: growth of human tumour cells (NCI), 48 h.
`COc1cc2c(cc1OC)C1=Cc3cc(OC)c(OC)cc3C(C)N1C=C2` (stereo not drawn) had a TGI greater than 100 µM.

In turn, `Nc1nc2cc3nc(N)c(N)nc3cc2nc1N` yielded a TGI greater than 100 µM.

In the case of `CCOC(=O)CNC(=O)C(CSCc1ccc(Br)cc1)NC(=O)CCC(N)C(=O)OCC` (stereo not drawn), the TGI is greater than 50 µM.

`COC(=O)C1(C(=O)OC)CC2=C(S(=O)(=O)c3ccccc3)C[C@H](S(=O)(=O)c3ccccc3)[C@H]2C1` came in with a TGI greater than 100 µM.

The subject of another experiment is DU-145 prostate. Kind of experiment: growth of human tumour cells (NCI), 48 h.
In turn, `COc1cc2c(cc1OC)C1=Cc3cc(OC)c(OC)cc3C(C)N1C=C2` (stereo not drawn) yielded a TGI greater than 100 µM.

Molecule `Nc1nc2cc3nc(N)c(N)nc3cc2nc1N` registered a TGI greater than 100 µM.

For `CCOC(=O)CNC(=O)C(CSCc1ccc(Br)cc1)NC(=O)CCC(N)C(=O)OCC` (stereo not drawn), the TGI was greater than 50 µM.
